Results on 33 molecules are retold here after ChEMBL document CHEMBL5543105, “Total synthesis and structural modification of the dibenzylbutane lignan LCA as a potent anti-inflammatory agent against LPS-induced acute lung injury” (Eur J Med Chem, 2024).

Structures are written as SMILES. The source made the active and inactive calls. The rule behind the calls is not given here.

The test system of series [1] is RAW264.7. In words: Cytotoxicity against mouse RAW264.7 cells upto 20 uM incubated for 24 hrs by CCK-8 assay. Conditions: raw264.7, 24 h. Format: toxicity, cell-based. A general note: Formazan colour is commonly taken as a measure of viable cells.
Series [2] relates to RAW264.7. Kind of series: Anti-inflammatory activity against mouse RAW264.7 cells assessed as inhibition of LPS-induced NO production at 20 uM incubated for 24 hrs. It is filed as functional, cell-based.
For series [3], the system named is Mus musculus. In words: Anti-inflammatory activity against LPS-induced acute […] injury C57BL/6 mouse model assessed as improvement in pulmonary hemorrhage at 20 mg/kg, ip administered for 1 hr and measured after 6 hrs by H and E staining based analysis. Format: functional, organism-based. Conditions: time 7.0 hrs.
The test system of series [4] is Mus musculus. In words: Anti-inflammatory activity against LPS-induced acute […] injury C57BL/6 mouse model assessed as improvement in lung edema at 20 mg/kg, ip administered for 1 hr and measured after 6 hrs by H and E staining based analysis. It is filed as functional, organism-based. Conditions: time 7.0 hrs.
Series [5] deals with Mus musculus. Kind of series: Anti-inflammatory activity against LPS-induced acute […] injury C57BL/6 mouse model assessed as reduction in bleeding points in lung at 20 mg/kg, ip administered for 1 hr and measured after 6 hrs by H and E staining based analysis. It is filed as functional, organism-based. Particulars: time 7.0 hrs.
For series [6], the system named is Mus musculus. In words: Anti-inflammatory activity against LPS-induced acute […] injury C57BL/6 mouse model assessed as reduction in alveolar thickness in lung at 20 mg/kg, ip administered for 1 hr and measured after 6 hrs by H and E staining based analysis. It is filed as functional, organism-based. Particulars: time 7.0 hrs.
Series [7] concerns Mus musculus. In words: Anti-inflammatory activity against LPS-induced acute […] injury C57BL/6 mouse model assessed as reduction in lung edema at 20 mg/kg, ip administered for 1 hr and measured after 6 hrs by H and E staining based analysis. It is filed as functional, organism-based. Particulars: time 7.0 hrs.
Series [8] deals with Mus musculus. In words: Anti-inflammatory activity against LPS-induced acute […] injury C57BL/6 mouse model assessed as reduction in congestion in lung at 20 mg/kg, ip administered for 1 hr and measured after 6 hrs by H and E staining based analysis. It is filed as functional, organism-based. Conditions: time 7.0 hrs.
Series [9] relates to Mus musculus. Kind of series: Anti-inflammatory activity against LPS-induced acute […] injury C57BL/6 mouse model assessed as improvement in alveolar wall thickness at 20 mg/kg, ip administered for 1 hr and measured after 6 hrs by H and E staining based analysis. It is filed as functional, organism-based. Conditions: time 7.0 hrs.
Series [10] relates to Mus musculus. In words: Anti-inflammatory activity against LPS-induced acute […] injury C57BL/6 mouse model assessed as improvement in destruction of lung structure at 20 mg/kg, ip administered for 1 hr and measured after 6 hrs by H and E staining based analysis. It is filed as functional, organism-based. Particulars: time 7.0 hrs.
Series [11] relates to Mus musculus. Kind of series: Anti-inflammatory activity against LPS-induced acute […] injury C57BL/6 mouse model assessed as improvement in alveolar structure at 20 mg/kg, ip administered for 1 hr and measured after 6 hrs by H and E staining based analysis. It is filed as functional, organism-based. Particulars: time 7.0 hrs.
The subject of series [12] is Mus musculus. Kind of series: Anti-inflammatory activity against LPS-induced acute […] injury C57BL/6 mouse model assessed as reduction in wet weight to dry weight ratio in lung at 20 mg/kg, ip administered for 1 hr and measured after 6 hrs. It is filed as functional, organism-based. Particulars: time 7.0 hrs.
Series [13] has as its system Mus musculus. Kind of series: Anti-inflammatory activity against LPS-induced acute […] injury C57BL/6 mouse model assessed as reduction in inflammatory cell infiltration at 20 mg/kg, ip administered for 1 hr and measured after 6 hrs by H and E staining based analysis. It is filed as functional, organism-based. Particulars: time 7.0 hrs.

In the case of `COc1cc(C[C@H](C(=O)N2CCN(c3cccc(F)c3)CC2)[C@@H](Cc2cc(OC)c(O)c(OC)c2)C(=O)N2CCN(c3cccc(F)c3)CC2)cc(OC)c1O`, the Activity entry in series [1] is listed as “Non-Toxic”. In the case of `COc1cc(C[C@H](C(=O)NC2CCCCC2)[C@@H](Cc2cc(OC)c(O)c(OC)c2)C(=O)NC2CCCCC2)cc(OC)c1O`, in [1], the Activity result is on record as “Non-Toxic”. With `COc1cc(C[C@H](C(=O)N2CCN(c3ccccc3C(F)(F)F)CC2)[C@@H](Cc2cc(OC)c(O)c(OC)c2)C(=O)N2CCN(c3ccccc3C(F)(F)F)CC2)cc(OC)c1O`, the result in series [2] was Active. Also, the Activity entry in series [1] is reported as “Non-Toxic”.

As for `CCCCCCNC(=O)[C@@H](Cc1cc(OC)c(O)c(OC)c1)[C@@H](Cc1cc(OC)c(O)c(OC)c1)C(=O)NCCCCCC`, in series [1], the Activity entry was “Non-Toxic”. Still for that read-out and setting: as for `COc1cc(C[C@H](C(=O)N2CCN(c3ccc(F)cc3)CC2)[C@@H](Cc2cc(OC)c(O)c(OC)c2)C(=O)N2CCN(c3ccc(F)cc3)CC2)cc(OC)c1O`, the entry is “Non-Toxic”; as for `COc1cc(C[C@H](C(=O)N2CCN(c3ccccc3)CC2)[C@@H](Cc2cc(OC)c(O)c(OC)c2)C(=O)N2CCN(c3ccccc3)CC2)cc(OC)c1O`, “Non-Toxic”; as for `COc1cc(C[C@H](C(=O)N2CCN(c3ccc(C(F)(F)F)cc3)CC2)[C@@H](Cc2cc(OC)c(O)c(OC)c2)C(=O)N2CCN(c3ccc(C(F)(F)F)cc3)CC2)cc(OC)c1O`, “Non-Toxic”.

`COc1cc(C[C@H](C(=O)N2CCN(c3ccccc3F)CC2)[C@@H](Cc2cc(OC)c(O)c(OC)c2)C(=O)N2CCN(c3ccccc3F)CC2)cc(OC)c1O`: in [1], the Activity entry is recorded as “Non-Toxic”.

For `COc1cc(C[C@H](C(=O)N2CCN(c3ccccc3C)CC2)[C@@H](Cc2cc(OC)c(O)c(OC)c2)C(=O)N2CCN(c3ccccc3C)CC2)cc(OC)c1O`, the outcome in series [2] was Active. Moreover, in [1], the Activity entry is reported as “Non-Toxic”. For `COc1cc(C[C@H](C(=O)N2CCN(c3cccc(C(F)(F)F)c3)CC2)[C@@H](Cc2cc(OC)c(O)c(OC)c2)C(=O)N2CCN(c3cccc(C(F)(F)F)c3)CC2)cc(OC)c1O` the same measures were “Active” and “Non-Toxic”. For `COc1cc(C[C@H](C(=O)N2CCN(c3ccc(Cl)cc3)CC2)[C@@H](Cc2cc(OC)c(O)c(OC)c2)C(=O)N2CCN(c3ccc(Cl)cc3)CC2)cc(OC)c1O` the same measures were “Active” and “Non-Toxic”. In the same order, the values of `COc1cc(C[C@H](C(=O)N2CCN(c3ccccc3Cl)CC2)[C@@H](Cc2cc(OC)c(O)c(OC)c2)C(=O)N2CCN(c3ccccc3Cl)CC2)cc(OC)c1O` are “Active” and “Non-Toxic”.

Take `COc1cc(C[C@H](C(=O)N2CCOCC2)[C@@H](Cc2cc(OC)c(O)c(OC)c2)C(=O)N2CCOCC2)cc(OC)c1O`: the outcome in series [2] was Active. The Activity result in series [1] is “Non-Toxic”. With `COc1cc(C[C@H](C(=O)NC2CC2)[C@@H](Cc2cc(OC)c(O)c(OC)c2)C(=O)NC2CC2)cc(OC)c1O`, the Activity result in series [1] is listed as “Non-Toxic”. On the same count and under the same terms, in the case of `CNC(=O)[C@@H](Cc1cc(OC)c(O)c(OC)c1)[C@@H](Cc1cc(OC)c(O)c(OC)c1)C(=O)NC` it was “Non-Toxic”. Turning to `COc1cc(C[C@H](C(=O)N2CCN(C)CC2)[C@@H](Cc2cc(OC)c(O)c(OC)c2)C(=O)N2CCN(C)CC2)cc(OC)c1O`, the outcome in series [2] was Active. Besides, the Activity result in series [1] is reported as “Non-Toxic”. Regarding `COc1cc(C[C@H](C(=O)N2CCN(c3ccccc3Br)CC2)[C@@H](Cc2cc(OC)c(O)c(OC)c2)C(=O)N2CCN(c3ccccc3Br)CC2)cc(OC)c1O`, the Activity entry in [1] is listed as “Non-Toxic”. For `COc1cccc(N2CCN(C(=O)[C@@H](Cc3cc(OC)c(O)c(OC)c3)[C@@H](Cc3cc(OC)c(O)c(OC)c3)C(=O)N3CCN(c4cccc(OC)c4)CC3)CC2)c1`, the Activity entry in [1] was “Non-Toxic”.

Turning to `COc1cc(C[C@H](C(=O)NCC2CCCCC2)[C@@H](Cc2cc(OC)c(O)c(OC)c2)C(=O)NCC2CCCCC2)cc(OC)c1O`, the Activity result in [1] is “Non-Toxic”.

Consider `COc1cc(C[C@H](C(=O)NC2CCC(OC)CC2)[C@@H](Cc2cc(OC)c(O)c(OC)c2)C(=O)NC2CCC(OC)CC2)cc(OC)c1O` (some centres not stated), for which the Activity result in series [1] is “Non-Toxic”. Same read-out and setting: as for `COc1cc(C[C@H](C(=O)N2CCCCC2)[C@@H](Cc2cc(OC)c(O)c(OC)c2)C(=O)N2CCCCC2)cc(OC)c1O`, the entry is “Non-Toxic”.

Regarding `COc1ccccc1N1CCN(C(=O)[C@@H](Cc2cc(OC)c(O)c(OC)c2)[C@@H](Cc2cc(OC)c(O)c(OC)c2)C(=O)N2CCN(c3ccccc3OC)CC2)CC1`, the Activity result in series [1] was “Non-Toxic”. Same read-out and setting: as for `COc1cc(C[C@H](C(=O)NC2CC(F)(F)C2)[C@@H](Cc2cc(OC)c(O)c(OC)c2)C(=O)NC2CC(F)(F)C2)cc(OC)c1O`, the entry is “Non-Toxic”. As for `COc1cc(C[C@H](C(=O)NCC2CCC2)[C@@H](Cc2cc(OC)c(O)c(OC)c2)C(=O)NCC2CCC2)cc(OC)c1O`, the Activity result in [1] is recorded as “Non-Toxic”.

As to `COc1cc(C[C@H](C(=O)N2CCN(c3ccc(C)cc3)CC2)[C@@H](Cc2cc(OC)c(O)c(OC)c2)C(=O)N2CCN(c3ccc(C)cc3)CC2)cc(OC)c1O`, in series [1], the Activity entry is “Non-Toxic”. Still for that read-out and setting: as for `COc1ccc(N2CCN(C(=O)[C@@H](Cc3cc(OC)c(O)c(OC)c3)[C@@H](Cc3cc(OC)c(O)c(OC)c3)C(=O)N3CCN(c4ccc(OC)cc4)CC3)CC2)cc1`, the entry is “Non-Toxic”. With `COc1cc(C[C@H](C(=O)N2CCN(c3ccc(F)cc3F)CC2)[C@@H](Cc2cc(OC)c(O)c(OC)c2)C(=O)N2CCN(c3ccc(F)cc3F)CC2)cc(OC)c1O`, in series [2], the result was Active. Also, the Activity entry in [1] is “Non-Toxic”. In the case of `COc1cc(C[C@H](C(=O)N2CCN(c3cccc(Cl)c3Cl)CC2)[C@@H](Cc2cc(OC)c(O)c(OC)c2)C(=O)N2CCN(c3cccc(Cl)c3Cl)CC2)cc(OC)c1O`, the Activity result in series [1] was “Non-Toxic”.

As to `COc1cc(C[C@H](C(=O)NC2CCC2)[C@@H](Cc2cc(OC)c(O)c(OC)c2)C(=O)NC2CCC2)cc(OC)c1O`, the Activity result in series [1] is reported as “Non-Toxic”. On to `COc1cc(C[C@H](C(=O)N2CCN(c3cccc(Cl)c3)CC2)[C@@H](Cc2cc(OC)c(O)c(OC)c2)C(=O)N2CCN(c3cccc(Cl)c3)CC2)cc(OC)c1O`, for which the result in [2] was Active. Moreover, in series [1], the Activity result is recorded as “Non-Toxic”.

Regarding `COc1cc(C[C@H](C(=O)N2CCN(c3cccc(C)c3)CC2)[C@@H](Cc2cc(OC)c(O)c(OC)c2)C(=O)N2CCN(c3cccc(C)c3)CC2)cc(OC)c1O`, the Activity result in series [1] was “Non-Toxic”. Turning to `COc1cc(/C=C/C(=O)OC[C@H](Cc2cc(OC)c(O)c(OC)c2)[C@@H](COC(=O)/C=C/c2ccc(O)c(OC)c2)Cc2cc(OC)c(O)c(OC)c2)ccc1O`, the result in series [3], in series [4], in series [5], in [6], in [7] and in series [8] was Active. Further, the result in series [9], in series [10], in [11], in series [12] and in [13] was Active. Turning to `COc1cc(C[C@H](C(=O)NC2CC(OC)C2)[C@@H](Cc2cc(OC)c(O)c(OC)c2)C(=O)NC2CC(OC)C2)cc(OC)c1O` (some centres not stated), the Activity result in series [1] is “Non-Toxic”.
